Measured values published in US20250099420A1, “SMALL MOLECULE MODULATORS OF GPR139 COMPLEX” (University of Florida Research Foundation, Incorporated, priority 2022, published 2025).
pEC50: −log10 of the molar value. Read-outs that look alike come from different tables or passages of the source.

What was measured:
parental HEK cells = experiment: HEK parental Agonist Counterscreen Assay (non-transfected cells); assay type: cell-based; conditions: for Averaged Max % Response (±St. Dev.): activity relative to known control
Text: The high control for the agonist counterscreen was Forskolin not acetylcholine.

GPR139 = target: T1, GPR139 (Homo sapiens, UniProt Q6DWJ6); experiment: GPR139 Agonist titration / agonist counterscreen assay (calcium detection, HEK-GPR139 cells); assay type: cell-based; set-up: expressed in transfected cells; host or cells: HEK Aequorin cells, Maxcyte transient transfection; conditions: GPR139 Agonist Activity; for pEC50: read-out: EC50; for Averaged Max % Response (±St. Dev.): activity relative to known control
T1 sequence (Q6DWJ6 1-353): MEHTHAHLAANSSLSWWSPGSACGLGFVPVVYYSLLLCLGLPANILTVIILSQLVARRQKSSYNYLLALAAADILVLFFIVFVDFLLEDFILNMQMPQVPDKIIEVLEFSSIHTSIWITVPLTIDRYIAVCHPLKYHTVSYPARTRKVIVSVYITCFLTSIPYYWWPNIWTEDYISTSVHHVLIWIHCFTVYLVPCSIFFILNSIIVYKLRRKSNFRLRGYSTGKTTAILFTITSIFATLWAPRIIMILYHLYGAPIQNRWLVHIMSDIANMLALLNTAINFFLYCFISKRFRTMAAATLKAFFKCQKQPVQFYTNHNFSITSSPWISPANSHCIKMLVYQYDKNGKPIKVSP
Description: GPR activity was assessed using a calcium detection assay. […] Negative control samples were treated with DMSO. […] Intracellular calcium was measured using Calcium 5.

[1] = HEK Agonist Activity section of Table 4 (parental HEK counterscreen)
[2] = Homo sapiens, HEK293, HEK Agonist Activity section of Table 4 (parental HEK counterscreen)
[3] = HEK Agonist Activity, parental non-transfected HEK cells
[4] = values printed in E-notation without unit
[5] = Homo sapiens, HEK293, HEK Agonist Activity, parental non-transfected HEK cells

| SMILES | Lipophilic Efficiency (logD) (parental HEK cells; HEK Agonist Activity section) | Lipophilic Efficiency (logP) (parental HEK cells; HEK Agonist Activity section) | Efficiency Ligand (GPR139) | Hill Slope (GPR139) | Lipophilic Efficiency (logD) (GPR139) | Lipophilic Efficiency (logP) (GPR139) | Averaged Max % Response (±St. Dev.) (GPR139) [%] | Lipophilic Efficiency (logD) (parental HEK cells; HEK Agonist Activity) | Lipophilic Efficiency (logP) (parental HEK cells; HEK Agonist Activity) | Lipophilic Efficiency (logD) (GPR139; based on logD) | Lipophilic Efficiency (logP) (GPR139; based on logP) | Efficiency Ligand (GPR139; ligand efficiency) | Hill Slope (GPR139; fitted dose-response curve) | pEC50 (GPR139; [4]) | Averaged Max % Response (±St. Dev.) (parental HEK cells; HEK Agonist Activity section) [%] | pEC50 (parental HEK cells; [2]) | Averaged Max % Response (±St. Dev.) (parental HEK cells; HEK Agonist Activity) [%] | further results |
| --- | --- | --- | --- | --- | --- | --- | --- | --- | --- | --- | --- | --- | --- | --- | --- | --- | --- | --- |
| Cc1c2cnn(CC(=O)NC(C)c3ccccc3)c(=O)c2c(C)n1Cc1ccc(F)cc1 (centres unmarked) [SR-01000138428] |  |  |  |  |  |  | 81.78 ± 16.61 | 1.03 | 1.03 | 4.85 | 4.85 | 0.38 |  |  |  |  | −0.31 ± 7.41 | pEC50 (parental HEK cells; [3]): < 4.85 |
| CCC1(c2ccc(Cl)cc2)NC(=O)N(CC(=O)N2CC3(C)CC2CC(C)(C)C3)C1=O (centres unmarked) [SR-01000045673] | 1.24 | 1.24 |  |  |  |  | 101.61 ± 5.25 |  |  | 3.67 | 3.67 | 0.34 | 0.62 | 7.27 | 4.34 ± 4.74 | < 4.84 |  |  |
| CC(NC(=O)CN1C(=O)c2cccc([N+](=O)[O-])c2C1=O)c1ccc(Cl)cc1Cl (centres unmarked) [SR-01000074712] |  |  |  |  |  |  | 109.67 ± 8.84 | 1.73 | 1.73 | 4.91 | 4.91 | 0.40 | 0.80 | 8.01 |  |  | 30.27 ± 2.23 | pEC50 (parental HEK cells; [5]): < 4.83 |
| O=C(Nc1ccc(-c2cn[nH]c2)cc1OCCN1CCCC1)C1COc2ccc(F)cc2C1.O=C(O)C(F)(F)F.O=C(O)C(F)(F)F (centres unmarked) [SR-00000005389] | 2.79 | 1.38 |  |  |  |  | 116.35 ± 10.47 |  |  | 4.67 | 3.26 | 0.29 | 0.77 | 6.73 | 31.02 ± 4.14 |  |  | pEC50 (parental HEK cells; [1]): < 4.85 |
| Cc1ccccc1CN1CCN(CC(=O)NCCc2ccc(Cl)cc2)C1=O [SR-01000093460] |  |  |  |  |  |  | 112.00 ± 16.24 | 1.85 | 1.85 | 6.04 | 6.04 | 0.47 |  |  |  |  | 109.44 ± 22.66 | Hill Slope (parental HEK cells; HEK Agonist Activity): 15.09; pEC50 (parental HEK cells; [3]): 4.96 |
| CC1(c2ccc(Cl)cc2)NC(=O)N(CC(=O)NCc2cccs2)C1=O (centres unmarked) [SR-01000058107] |  |  |  |  |  |  | 95.61 ± 13.32 | 2.55 | 2.55 | 5.35 | 5.35 | 0.43 | 0.85 | 7.63 |  |  | 4.84 ± 7.51 | pEC50 (parental HEK cells; [5]): < 4.83 |
| COc1ccc(OC)c(NC(=O)NNC(=O)C(C)Oc2ccc(Cl)cc2Cl)c1 (centres unmarked) [SR-01000276878] |  |  |  |  |  |  | 97.36 ± 11.63 | 1.62 | 1.58 | 4.40 | 4.36 | 0.38 | 0.75 | 7.62 |  |  | 6.40 ± 8.50 | pEC50 (parental HEK cells; [5]): < 4.85 |
| CC(C)(C)OC(=O)NNC(=O)COCc1ccc(Cl)c(Cl)c1 [SR-01000074687] | 1.33 | 1.32 |  |  |  |  | 90.02 ± 17.44 |  |  | 3.63 | 3.62 | 0.45 | 0.77 | 7.11 | 17.98 ± 4.87 | < 4.81 |  |  |
| O=C(CN1CCN(C/C=C/c2ccccc2)CC1)NCCCc1ccccc1 [SR-01000062290] | 1.34 | 1.10 |  |  |  |  | 128.31 ± 15.25 |  |  | 3.75 | 3.51 | 0.36 | 0.74 | 7.23 | 11.38 ± 4.42 | < 4.83 |  |  |
| CCC1Cc2ccc(C)cc2CC1C(=O)Nc1ccc(-c2cn[nH]c2)cc1OCCN(C)C (centres unmarked) [SR-00000007138] |  |  |  |  |  |  | 109.71 ± 13.62 | 3.12 | 1.76 | 5.84 | 4.48 | 0.31 | 0.17 | 7.57 |  |  | 10.53 ± 4.93 | pEC50 (parental HEK cells; [5]): < 4.85 |
| O=C(CC1Nc2ccccc2NC1=O)NCC1COc2ccccc2O1 (centres unmarked) [SR-01000146516] | 3.75 | 3.75 |  |  |  |  | 88.18 ± 13.52 |  |  | 5.60 | 5.60 | 0.36 | 0.77 | 6.71 | −2.96 ± 7.51 | < 4.85 |  |  |

More lines, main results first:

| Lipophilic Efficiency (logD) (parental HEK cells; HEK Agonist Activity section) | Lipophilic Efficiency (logP) (parental HEK cells; HEK Agonist Activity section) | Efficiency Ligand (GPR139) | Hill Slope (GPR139) | Lipophilic Efficiency (logD) (GPR139) | Lipophilic Efficiency (logP) (GPR139) | Averaged Max % Response (±St. Dev.) (GPR139) [%] | Lipophilic Efficiency (logD) (parental HEK cells; HEK Agonist Activity) | Lipophilic Efficiency (logP) (parental HEK cells; HEK Agonist Activity) | Lipophilic Efficiency (logD) (GPR139; based on logD) | Lipophilic Efficiency (logP) (GPR139; based on logP) | Efficiency Ligand (GPR139; ligand efficiency) | Hill Slope (GPR139; fitted dose-response curve) | pEC50 (GPR139; [4]) | SMILES | Averaged Max % Response (±St. Dev.) (parental HEK cells; HEK Agonist Activity section) [%] | pEC50 (parental HEK cells; [2]) | Averaged Max % Response (±St. Dev.) (parental HEK cells; HEK Agonist Activity) [%] | further results |
| --- | --- | --- | --- | --- | --- | --- | --- | --- | --- | --- | --- | --- | --- | --- | --- | --- | --- | --- |
| 3.56 | 3.55 | 0.35 | 1.48 | 4.77 | 4.76 | 96.78 ± 9.37 |  |  |  |  |  |  |  | O=C(CSCc1cccc2ccccc12)Nc1c[nH]c(=O)[nH]c1=O [SR-01000296110] | 3.41 ± 3.54 |  |  | pEC50 (parental HEK cells; [1]): < 4.85; pEC50 (GPR139; HEK-GPR139 cells): 6.07 |
| 1.74 | 1.74 | 0.42 | 0.93 | 3.32 | 3.32 | 109.30 ± 27.76 |  |  |  |  |  |  |  | Cc1cccc(C(=O)NNC(=O)CCc2ccccc2)c1 [SR-01000513008] | −5.44 ± 7.74 | < 4.77 |  | pEC50 (GPR139; HEK-GPR139 cells): 6.34 |
| 1.43 | −0.025 | 0.31 | 0.53 | 2.32 | 0.87 | 135.48 ± 20.60 |  |  |  |  |  |  |  | Cc1ccccc1CN1CCC(O)(c2ccc(Cl)c(C(F)(F)F)c2)CC1 [SR-05000022582] | 0.58 ± 18.59 |  |  | pEC50 (parental HEK cells; [1]): < 4.85; pEC50 (GPR139; HEK-GPR139 cells): 5.74 |
| 1.03 | 0.98 | 0.45 | 1.89 | 2.40 | 2.36 | 90.10 ± 8.93 |  |  |  |  |  |  |  | C=C1N=C(NC2CCCCCC2)c2ccccc2N1 [SR-01000565308] | 25.00 ± 13.25 | < 4.76 |  |  |
| 2.07 | 2.07 | 0.30 | 0.38 | 3.52 | 3.52 | 89.57 ± 9.18 |  |  |  |  |  |  |  | O=C(Cn1ccc2ccccc21)NCCCC(=O)Nc1cccc2cccnc12 [SR-01000926510] | 9.24 ± 7.87 | < 4.85 |  | pEC50 (GPR139; HEK-GPR139 cells): 6.31 |
| 0.07 | 0.07 | 0.26 | 1.72 | 1.52 | 1.52 | 84.07 ± 18.43 |  |  |  |  |  |  |  | O=C(CC1C(=O)N(c2ccccc2)C(=O)N1Cc1ccc2c(c1)OCO2)Nc1ccc(Cl)cc1 (centres unmarked) [SR-01000428566] | 40.80 ± 6.00 | < 4.92 |  | pEC50 (GPR139; HEK-GPR139 cells): 6.37 |
|  |  |  |  |  |  | 116.62 ± 3.81 | 1.64 | 1.46 | 3.89 | 3.71 | 0.23 | 0.26 | 7.40 | O=C(NCCc1ccc(Cl)cc1)c1ccc(N2CC3CC(C2)c2cccc(=O)n2C3)c(NS(=O)(=O)c2ccc3c(c2)OCCO3)c1 (centres unmarked) [SR-01000583473] |  |  | 54.64 ± 8.92 | Hill Slope (parental HEK cells; HEK Agonist Activity): 0.45; pEC50 (parental HEK cells; [3]): 5.14 |
|  |  |  |  |  |  | 110.51 ± 12.41 | 1.28 | 1.28 | 5.58 | 5.58 | 0.49 |  |  | CCOc1ccc(C(=O)NCCn2ccc3ccccc32)cc1OCC [SR-01000907288] |  |  | 14.88 ± 7.51 | pEC50 (parental HEK cells; [5]): < 4.85 |
